Test results: PubChem BioAssay AID179 (DTP/NCI, 2004)
“And” between values parts separate entries of the source, which are not always exact repeats. Equal values may be shown once. The source made the active and inactive calls.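 How the source made its calls: active means compounds giving half or more protection of infected cells from virus-caused growth loss, again on retest; inactive means the rest.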

Test system: CEM cells HIV-1 protection, formazan growth assay
Assay: NCI AIDS Antiviral Assay
Conditions: for IC50: measured here: growth of uninfected CEM cells
Method in brief: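 Human CEM cells, uninfected and HIV-1-infected, exposed to five drug concentrations; growth measured by soluble formazan assay and scored as percent protection from infection, with protecting compounds retested.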

Compound	EC50	IC50	outcome
Cc1cn(CC2=NCCN2)c(=O)[nH]c1=O	> 200 µM	> 200 µM	
COc1ccc2nc(NC(=O)C(=O)C(C#N)c3ccc([N+](=O)[O-])cc3)sc2c1 (centres undefined)			inactive
COc1ccc2nc3cc(Cl)ccc3c(NCCCN3CCN(CCCNc4ccc5nnn6c7ccccc7c(=O)c4c56)CC3)c2c1	0.00251 µM	0.00794 µM	
O=c1c(S(=O)(=O)Oc2ccccc2)coc2cc(F)ccc12	> 200 µM	135 µM	
C(COC1CC2CC1C1CC3OC3C21)OCCOC1CC2CC1C1CC3OC3C21 (centres undefined)	> 200 µM	77.6 µM	
C/C(=N\N=C(/[O-])c1ccccc1)c1cccc(/C(C)=N/N=C(\[O-])c2ccccc2)n1.O.[Ni+2]	> 100 µM	> 100 µM	
COc1cc2ccc1OCc1cccc(n1)COc1ccc(cc1OC)C=Nc1ccc(cc1)-c1ccc(cc1)N=C2	> 200 µM	> 200 µM	
O=S1(=O)C=C2CCCCC21 (centres undefined)	> 1580 µM	> 1580 µM	
CC(=O)Oc1cc(S(=O)(=O)Nc2n[nH]c(Nc3ccc(C)cc3)n2)c(S)cc1Cl	155 µM	263 µM	
COC(=O)c1ccc(NCC2=C(Br)C(=O)C=CC2=O)cc1Cl			inactive
CCOC(=O)C1(C)C2=CC=C(O2)C(C)(C)C2=CC=C(O2)C(C)(C)C2=CC=C(O2)C(C)(C)C2=CC=C1O2			inactive
O=C(/C=C/c1ccc2c(c1)OCO2)c1cc(Cl)cc(Cl)c1O			inactive
C[Si](C)(C)/C=C/CN1C(=O)CCC1O (centres undefined)			inactive
O=[N+]([O-])c1ccc(S(=O)(=O)c2ccc([N+](=O)[O-])cc2C(F)(F)F)c(C(F)(F)F)c1			inactive
CC(C)CCn1nc(N)c2nc3ccccc3nc21	> 200 µM	112 µM	
N#C/C(C(=S)NCc1ccccc1)=C1/Nc2ccccc2O1	> 200 µM	33.1 µM	
Cc1noc(C)c1-c1onc2ccc(Cl)cc12	> 28.8 µM	> 28.8 µM	
COc1ccc(-c2cc(-c3ccc(Cl)cc3)n(C3OC(CO)C(O)C(O)C3O)c(=S)c2C#N)cc1 (centres undefined)	> 200 µM	7.76 µM	
O=C1CSc2ccncc2N1	> 1510 µM	> 1510 µM	
CC(=C\c1ccccc1)/C=C1\C(=O)NC(=S)N1C=C1C(=O)NC(=O)NC1=O	> 200 µM	> 200 µM	
NCCN.NCCN.O=C([O-])C(=O)[O-].[Cl-].[Co+3]			inactive

Compound	EC50	IC50	outcome
CN1C(=O)C2C=CC1C1CCC2N(C)C1=O (centres undefined)			inactive
NC1(C(=O)O)CCCC1	> 724 µM	> 724 µM	
CC1=Nc2c([nH]c(=S)[nH]c2=O)NC(c2ccc(Cl)c(Cl)c2)C1 (centres undefined)	> 7.76 µM	> 7.76 µM	
COC(=O)c1c(C)cc2c(c1O)C1(O)C(=O)c3cc4c(c(O)c3C(=O)C1(OC)C(O)C2)C(=O)C=C(NC1OC(C)C(OC)C(O)C1OC)C4=O (centres undefined)			inactive
CCOC(=O)c1[nH]c2c(OCC)nc(OCC)nc2c1Br	> 200 µM	> 200 µM	
O=C1Sc2cc([N+](=O)[O-])ccc2C(=O)N2CSCC12 (centres undefined)	> 50.1 µM	> 50.1 µM	
COc1ccc2ccc3c(c2c1)CN1CCc2cc(OC)c(OC)cc2C1C3 (centres undefined)			inactive
COc1ccc(OCc2nc3ccccc3[nH]2)cc1	> 200 µM	> 200 µM	
COc1ccc(N2C(=O)[C@@H]3[C@@H]4CC(C)CC[C@@H]4c4c([nH]c5ccccc45)[C@@H]3C2=O)cc1 (some centres undefined)	> 3.31 µM	> 3.31 µM	
COc1cc(OC)c2c(=O)c3cccc(O)c3oc2c1	> 200 µM	> 200 µM	
CCN(CC)C(=O)N[C@@H](CC(C)C)C(=O)NC	> 200 µM	> 200 µM	
CNC(=S)NNC1=NCCCN1	> 200 µM	> 200 µM	
CN(C)C(=S)OC(Cn1cncn1)c1ccc(Cl)cc1Cl (centres undefined)	> 513 µM	427 µM	
Cc1cc(S(=O)(=O)n2ccnc2Oc2ccccc2)c(SSc2cc(Cl)c(C)cc2S(=O)(=O)n2ccnc2Oc2ccccc2)cc1Cl	129 µM	> 200 µM	
CCNC(=S)N/N=C(\C)c1ccccn1	> 0.2 µM	0.0158 µM	
O=C(O)CC[C@]1(C(=O)O)NC(C(=O)O)Cc2[nH]cnc21 (some centres undefined)	> 891 µM	> 891 µM	
CO[C@@]12CC(=O)/C(=C(O)\C=C\c3ccccc3)C(=O)[C@]1(O)Cc1ccccc1O2	> 316 µM	42.7 µM	
c1ccc2c3nc4ccccc4c-3scc2c1	> 56.2 µM	6.46 µM	
Cc1nnc(NC(=O)c2cc(=O)c3ccccc3o2)s1	> 91.2 µM	> 91.2 µM	
CCOP1(=O)CC(C)=C(Cl)C(O)C1 (centres undefined)	> 200 µM	> 200 µM	
CCN(CC)CCN1CCNc2c3cc(OC)ccc3nc3c([N+](=O)[O-])ccc1c23	> 100 µM	1.58 µM	

Compound	EC50	IC50	outcome
COc1ccc(-c2coc3cc(OC)cc(O)c3c2=O)cc1	> 200 µM	> 200 µM	
Cc1cccc(C)c1NC(=O)C(=O)C(C(=O)c1ccccc1-c1ccccc1)C1OC(=O)c2ccccc21 (centres undefined)	> 135 µM	24.5 µM	
Cc1cc(S(=O)(=O)Nc2nnc3ccc4ccccc4n23)c(S)cc1Cl	> 200 µM	30.9 µM	
COc1cc2ccc(=O)oc2cc1O	> 339 µM	55 µM	
NC(=O)C(=CNc1nc(-c2ccc(Cl)c(Cl)c2)cs1)C(N)=O	> 200 µM	102 µM	
CC/C=C\C/C=C\C/C=C\CCCCCCCC(=O)OCC	> 200 µM	105 µM	
CC(=O)O[C@@]12[C@@H]3O[C@@]4(O)C[C@]5(C)[C@H]6C[C@@](C(C)C)(O[C@H]5c5ccoc5)O[C@H]1[C@]6(C4)O[C@]2(O)C(C)=CC3(C)C	> 100 µM	52.5 µM	
CC(C)(C)OC(=O)NCCCCCCC(=O)Cc1ccccc1	> 200 µM	117 µM	
CSC1=C(C#N)C(c2ccccc2)CC(=O)N1 (centres undefined)	> 200 µM	> 200 µM	
CCCCCCCCCC(=O)CC(=O)c1ccc(O)cc1O	> 117 µM	69.2 µM	
CC1C2(C)OC(=N)C(C#N)(C(c3cccc([N+](=O)[O-])c3)O2)C1(C#N)C#N (centres undefined)	> 200 µM	11.7 µM	
Cc1ccc(NC(=O)/C(CC(=O)c2sc(Nc3ccc(Cl)c(Cl)c3)nc2C)=N\Nc2ccc([N+](=O)[O-])cc2[N+](=O)[O-])c(C)c1	> 200 µM	25.1 µM	
COc1cc(C2[C@H]3C(=O)N(c4ccc(Cc5ccc(N6C(=O)[C@@H]7ON(c8ccccc8)C(c8cc(OC)c(OC)c(OC)c8)[C@@H]7C6=O)cc5)cc4)C(=O)[C@H]3ON2c2ccccc2)cc(OC)c1OC (some centres undefined)	> 5.62 µM	> 5.62 µM	
C1OC1CN1CCN(CC2CO2)CC1 (centres undefined)			inactive
CCCCCCCCCCCCCCCCOP(=O)(O)OCC(NC(C)=O)C(=O)O (centres undefined)	> 200 µM	63.1 µM	
CC1C2CC(CC2N)C1(C)C (centres undefined)	> 162 µM	> 162 µM	
Cc1cc(S(=O)(=O)Nc2nc(Nc3ccc(Cl)cc3)nn2C)c(S)cc1Cl	> 200 µM	83.2 µM	
CC(=O)O[C@H]1CC[C@@]2(C)[C@H](CC[C@@H]3[C@@H]2CC[C@]2(C)[C@@H]4[C@H](C[C@@H]32)O[C@]2(CC[C@@H](C)CO2)[C@H]4C)C1	> 200 µM	> 200 µM	
C=C(COC(=O)CC(C)(C)CC(=O)O)[C@@H]1CC[C@]2(COC(=O)CC(C)(C)CC(=O)O)CC[C@]3(C)[C@H](CC[C@@H]4[C@@]5(C)CC[C@H](OC(=O)CC(C)(C)CC(=O)O)C(C)(C)[C@@H]5CC[C@]43C)[C@@H]12	> 200 µM	24.5 µM	
COc1ccc2c(c1)C(O)C(CO)C(C(=O)O)C2 (centres undefined)	> 200 µM	> 200 µM	
CCc1cccc(C)c1NS(=O)(=O)c1ccccc1			inactive

Compound	EC50	IC50	outcome
O=C(O)CNCCCCCCNCC(=O)O	> 631 µM	617 µM	
CCOC(=O)/C(Cc1cc(=O)n(C)c2ccccc12)=N\Nc1ccccc1	> 200 µM	> 200 µM	
Cc1ccc(S(=O)c2ccccc2[N+](=O)[O-])cc1 (centres undefined)	> 35.5 µM	28.2 µM	
Cc1c(C)c2ccc3c(c2oc1=O)[C@@H](OC(=O)C12CCC(C)(C(=O)O1)C2(C)C)[C@@H](OC(=O)C12CCC(C)(C(=O)O1)C2(C)C)C(C)(C)O3 (some centres undefined)	0.245 µM	123 µM	
COC(=O)CCC(NC(=O)C(C)NC(=O)COC1C(O)C(OC(=O)CCNc2c3ccccc3nc3cccc([N+](=O)[O-])c23)OC(OCc2ccccc2)C1NC(C)=O)C(N)=O (centres undefined)			inactive
N/N=C(/c1ccccc1)c1cccc([N+](=O)[O-])c1	> 200 µM	166 µM	
CCOP(=O)(OCC)/C(C#N)=C/c1ccc(C)o1	> 933 µM	129 µM	
Nc1nc(=O)n(C2OC(CO)C(O)C2Cl)cc1I (centres undefined)	> 200 µM	1.17 µM	
CC(=O)[CH-]C(C)=O.CC(=O)[CH-]C(C)=O.CCCNCCN.[Cr+5].[O-][Cl+3]([O-])([O-])[O-]	> 200 µM	> 200 µM	
CCOC(=O)N1CCN(P(=O)(Nc2ccc3nc(NC(=O)OC)[nH]c3c2)Oc2ccccc2)CC1 (centres undefined)	> 135 µM	53.7 µM	
CC(=O)C1C(=O)C(=O)N(c2ccc([N+](=O)[O-])cc2[N+](=O)[O-])C1=O (centres undefined)	> 200 µM	> 200 µM	
CCN1C(=O)C(C)S/C1=N\NC(=O)CSc1nc2ccccc2c(=O)n1CC (centres undefined)	> 200 µM	145 µM	
O=C(Cc1ccccc1)c1ccc(O)cc1O	> 200 µM	85.1 µM	
Cc1nc2ccc(Cl)cc2c2c1CCN2c1ccc(F)cc1	> 200 µM	11.5 µM	
CCCCCCCCCCCCCCCCCC(=O)OCC(COC1OC(CS(=O)(=O)O)C(O)C(O)C1O)OC(=O)CCCCCCCCCCCCCCCCC (centres undefined)	11.7 µM and > 20.4 µM	138 µM and > 20.4 µM	inactive
O=c1n(-c2ccccc2)c(=O)n2c(=O)n(-c3ccccc3)c(=O)n12	> 100 µM	> 100 µM	
CC1(C)OC(CCC#N)CN1C(=O)OCc1ccccc1 (centres undefined)	> 200 µM	135 µM	
CCC1(OC(=O)CNC)C(=O)OCc2c1cc1n(c2=O)Cc2cc3ccccc3nc2-1 (centres undefined)	> 10 µM	0.00977 µM	
Cc1cc(=O)c2ccc3c(ccc4c(=O)cc(C)[nH]c43)c2[nH]1	> 200 µM	11.5 µM	
Oc1cc(O)c2c(c1)O[C@H](c1cc(O)c(O)c(O)c1)[C@H](O)C2	> 200 µM	0.692 µM	
